According to US8541404B2, “Inhibitors of the human aldosterone synthase CYP11B2” (ElexoPharm GmbH, priority 2009, dated 2013):

Target: T1, human aldosterone synthase (CYP11B2) (Homo sapiens, UniProt P19099)
T1 construct: expressed in transfected cells; host or cells: V79 MZh11B2 (V79 Chinese hamster cells)
T1 sequence (P19099 25-503): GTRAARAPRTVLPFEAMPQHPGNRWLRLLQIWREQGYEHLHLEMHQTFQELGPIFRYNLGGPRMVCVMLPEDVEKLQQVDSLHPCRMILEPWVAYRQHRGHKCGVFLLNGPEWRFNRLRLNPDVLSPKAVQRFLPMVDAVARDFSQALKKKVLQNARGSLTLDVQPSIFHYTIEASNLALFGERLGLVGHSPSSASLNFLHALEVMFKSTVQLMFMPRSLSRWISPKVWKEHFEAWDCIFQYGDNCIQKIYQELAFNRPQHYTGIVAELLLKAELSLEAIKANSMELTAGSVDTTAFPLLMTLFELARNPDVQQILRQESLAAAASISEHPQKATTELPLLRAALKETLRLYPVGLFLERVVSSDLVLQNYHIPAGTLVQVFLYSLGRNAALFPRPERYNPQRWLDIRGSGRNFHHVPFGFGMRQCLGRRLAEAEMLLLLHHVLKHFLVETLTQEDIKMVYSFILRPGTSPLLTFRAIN
Test: Test for CYP11B2 inhibitors in V79 MZh11B2 cells (test system B)
Assay type: cell-based
Details: Table 1, V79 MZh11B2 cells, read-out: IC50 V79 11B2 hCYP11B2
Description: B) Test for CYP11B2 Inhibitors (V79 MZh Cells):
(§1) Maintenance of the cells: V79 MZh11B2 and V79 MZh11B1, which recombinantly express human aldosterone synthase (CYP11B2) or steroid 11-β-hydroxylase CYP11B1) and were prepared according to Denner et al. (Denner, K. et al., Pharmacogenetics 5:89-96 (1995)), were cultured in cell culture dishes of 60 or 90 mm diameter in a CO2 incubator at 37° C. and in a water-saturated atmosphere containing 5% of CO2. Both cell lines were cultured in DMEM^+, which contained 10% of FCS and the antibiotics penicillin and streptomycin (1%) for protection from bacterial contamination. The cells were passaged every 2 to 3 days following treatment with trypsin/EDTA, since the doubling […], according to cell count, was 1 to 2 days. The cells were passaged up to 12 to 15 times in order to exclude possible cell changes. If needed, freshly thawed cells were employed.
(§2) Inhibition test: V79 MZh11B2- and V79 MZh11B1 cells (8·10^5 cells per well) were grown to confluence in 24-well cell culture plates with a 1.9 cm^2 culture area per hole (Nunc, Roskilde, Denmark). Before the test, the DMEM culture medium present was removed, and 450 μl of fresh DMEM with inhibitor were added to each hole in at least three different concentrations in order to determine the IC50 value. After preincubation (60 min, 37° C.), the reaction was started by the addition of 50 μl of DMEM containing 2.5 μl of a solution of the substrate 11-deoxycorticosterone (20 μM, containing 1.25 nCi of [4-^14C]11-deoxycorticosterone, in ethanol). The plate was then kept in the CO2 incubator at 37° C. and under 5% CO2. The V79 MZh11B1 cells were incubated for 120 min, the V79 MZh11B2 cells for 40 min. Controls not containing inhibitor were treated in the same manner. The enzyme reactions were stopped by extraction of the supernatant with 500 μl of EtOAc. The samples were centrifuged (10000×g, 2 min), and the solution was removed and evaporated. The residue was taken up in 10 μl of chloroform and analyzed by HPTLC (see below).
For V79 MZh11B2, the conversion followed according to equation 3: […]
(§3) The percentage inhibition which was caused by an inhibitor in the concentration employed in each case was calculated according to equation 2.
(§4) It was calculated by determining the percentage inhibition at least 3 different inhibitor concentrations, which must all lie in the linear range of the sigmoidal IC50 curve (log C/% inhibition). The calculation was carried out by linear regression. The values determined were only used if they formed a straight line at a probability r of >0.95.
(§5) The resuspended residue from example A) or B)—containing the radiolabeled steroids—was applied to an HPTLC plate (20×10 cm, silica gel 60F254) with a concentration zone (Merck, Darmstadt, Germany). The plate was developed twice using the mobile phase chloroform/methanol/water (300:20:1). Unlabeled […] and corticosterone were applied as a reference for the CYP11B1 reaction. For the CYP11B2 reaction, 11-deoxycorticosterone, corticosterone, 18-hydroxycorticosterone and aldosterone were used as a reference. The unlabeled references were detected at 260 nm. Subsequently, imaging plates (BAS MS2340, for ^14C samples, Raytest, Straubenhardt, Germany) were exposed for 48 h with the HPTLC plates. The imaging plates were scanned using the Phosphoimager system Fuji FLA 3000 (Raytest, Straubenhardt, Germany) and the steroids were quantified.

IC50	Structure (SMILES)
28 nM	O=C1CCc2cc(-c3cccnc3)ccc2N1 [Example 1, 6-Pyridin-3-yl-3,4-dihydro-1H-quinolin-2-one]
0.2 nM	COc1cncc(-c2ccc3c(c2)CCC(=O)N3C)c1 [Example 6, 6-(5-Methoxypyridin-3-yl)-1-methyl-3,4-dihydro-1H-quinolin-2-one]
21 nM	CCN1C(=O)CCc2cc(-c3cccnc3)ccc21 [Example 9, 1-Ethyl-6-pyridin-3-yl-3,4-dihydro-1H-quinolin-2-one]
3.8 nM	O=C1CCc2cc(-c3cccnc3)cc(Cl)c2N1 [Example 12, 8-Chloro-6-pyridin-3-yl-3,4-dihydro-1H-quinolin-2-one]

Same assay, conditions: V79MZh11B2, Table 2, percentage inhibition, inhibitor concentration 0.5 μM, read-out: % (0.5 μM) hCYP11B2

inhibition at 0.5 µM	Structure (SMILES)
95%	COc1cncc(-c2cc3c4c(c2)CCC(=O)N4CCC3)c1 [Example 19, 9-(5-Methoxypyridin-3-yl)-1,2,6,7-tetrahydro-5H-pyrido[3,2,1-ij]quinolin-3-one]
87%	O=C1CCc2cc(-n3ccnc3)cc3c2N1CC3 [Example 28, 8-Imidazol-1-yl-1,2,5,6-tetrahydro-pyrrolo[3,2,1-ij]quinolin-4-one]

Target: T2, steroid 11-β-hydroxylase CYP11B1 (hCYP11B1) (Homo sapiens, UniProt P15538)
T2 construct: expressed in transfected cells; host or cells: V79 MZh11B1 (V79 Chinese hamster cells)
T2 sequence (P15538 25-503): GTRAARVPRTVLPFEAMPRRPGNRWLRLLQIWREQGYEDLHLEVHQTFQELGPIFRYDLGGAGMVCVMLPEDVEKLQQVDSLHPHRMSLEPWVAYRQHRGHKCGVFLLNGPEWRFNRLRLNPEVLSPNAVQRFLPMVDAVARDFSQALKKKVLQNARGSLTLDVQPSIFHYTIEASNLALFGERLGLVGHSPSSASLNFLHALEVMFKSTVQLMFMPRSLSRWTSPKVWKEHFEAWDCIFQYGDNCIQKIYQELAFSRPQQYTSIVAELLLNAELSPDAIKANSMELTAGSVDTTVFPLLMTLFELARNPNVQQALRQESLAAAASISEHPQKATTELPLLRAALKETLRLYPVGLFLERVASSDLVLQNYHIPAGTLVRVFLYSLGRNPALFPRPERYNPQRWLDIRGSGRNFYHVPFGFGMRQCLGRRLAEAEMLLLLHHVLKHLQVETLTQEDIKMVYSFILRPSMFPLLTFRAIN
Test: Inhibition test in V79 MZh11B1 cells (test system B)
Assay type: cell-based
Details: Table 1, V79 MZh11B1 cells, read-out: IC50 V79 11B1 hCYP11B1
Description: as §1, §2
In the case of V79 MZh11B1, conversion was calculated analogously to equation 1, wherein: […]
as §3, §4, §5

IC50	Structure (SMILES)
6750 nM	O=C1CCc2cc(-c3cccnc3)ccc2N1 [Example 1, 6-Pyridin-3-yl-3,4-dihydro-1H-quinolin-2-one]
87 nM	COc1cncc(-c2ccc3c(c2)CCC(=O)N3C)c1 [Example 6, 6-(5-Methoxypyridin-3-yl)-1-methyl-3,4-dihydro-1H-quinolin-2-one]
5970 nM	CCN1C(=O)CCc2cc(-c3cccnc3)ccc21 [Example 9, 1-Ethyl-6-pyridin-3-yl-3,4-dihydro-1H-quinolin-2-one]
1670 nM	O=C1CCc2cc(-c3cccnc3)cc(Cl)c2N1 [Example 12, 8-Chloro-6-pyridin-3-yl-3,4-dihydro-1H-quinolin-2-one]

Same assay, conditions: Table 2, percentage inhibition, inhibitor concentration 0.5 μM

% (0.5 μM) hCYP11B1	Structure (SMILES)
97%	CN1C(=O)CCc2cc(-c3cncc4ccccc34)ccc21 [Example 7, 6-Isoquinolin-4-yl-1-methyl-3,4-dihydro-1H-quinolin-2-one]
51%	COc1cncc(-c2cc3c4c(c2)CCC(=O)N4CCC3)c1 [Example 19, 9-(5-Methoxypyridin-3-yl)-1,2,6,7-tetrahydro-5H-pyrido[3,2,1-ij]quinolin-3-one]

Second part, the compound before the results:

Structure (SMILES)	% (0.5 μM) hCYP11B1
S=C1CCc2cc(-c3cccnc3)ccc2N1 [Example 8, 6-Pyridin-3-yl-3,4-dihydro-1H-quinoline-2-thione]	49%
O=C1CSc2cc(-c3cccnc3)ccc2N1 [Example 14, 7-Pyridin-3-yl-4H-benzo[1,4]thiazin-3-one]	49%
O=C1CCc2cc(-n3ccnc3)cc3c2N1CC3 [Example 28, 8-Imidazol-1-yl-1,2,5,6-tetrahydro-pyrrolo[3,2,1-ij]quinolin-4-one]	24%

Tested on: not given
Test: not given
Details: not given

melting point	Structure (SMILES)
189 °C	O=C1CCc2cc(-c3cccnc3)ccc2N1 [Example 1, 6-Pyridin-3-yl-3,4-dihydro-1H-quinolin-2-one]
159 °C	COc1cncc(-c2ccc3c(c2)CCC(=O)N3C)c1 [Example 6, 6-(5-Methoxypyridin-3-yl)-1-methyl-3,4-dihydro-1H-quinolin-2-one]
176 °C	CN1C(=O)CCc2cc(-c3cncc4ccccc34)ccc21 [Example 7, 6-Isoquinolin-4-yl-1-methyl-3,4-dihydro-1H-quinolin-2-one]
91 °C	CCN1C(=O)CCc2cc(-c3cccnc3)ccc21 [Example 9, 1-Ethyl-6-pyridin-3-yl-3,4-dihydro-1H-quinolin-2-one]
150 °C	COc1cncc(-c2cc3c4c(c2)CCC(=O)N4CCC3)c1 [Example 19, 9-(5-Methoxypyridin-3-yl)-1,2,6,7-tetrahydro-5H-pyrido[3,2,1-ij]quinolin-3-one]

Further lines, the compound ahead of its results:

Structure (SMILES)	melting point
S=C1CCc2cc(-c3cccnc3)ccc2N1 [Example 8, 6-Pyridin-3-yl-3,4-dihydro-1H-quinoline-2-thione]	267 °C
O=C1CCc2cc(-c3cccnc3)cc(Cl)c2N1 [Example 12, 8-Chloro-6-pyridin-3-yl-3,4-dihydro-1H-quinolin-2-one]	178 °C
O=C1CSc2cc(-c3cccnc3)ccc2N1 [Example 14, 7-Pyridin-3-yl-4H-benzo[1,4]thiazin-3-one]	240 °C
O=C1CCc2cc(-n3ccnc3)cc3c2N1CC3 [Example 28, 8-Imidazol-1-yl-1,2,5,6-tetrahydro-pyrrolo[3,2,1-ij]quinolin-4-one]	124 °C
